Measurements as given in patent US10722501B2 (BAYER AKTIENGESELLSCHAFT, priority 2016, dated 2020).

target: T1, recombinant full-length human prolyl endopeptidase (PREP) (Homo sapiens, UniProt P48147); experiment: Biochemical human prolyl endopeptidase (PREP) assay with fluorescently labelled substrate; conditions: substrate Z-Gly-Pro-AMC 50 μM, 32° C., 60 min; some as mean values from multiple independent determinations
T1 construct: To recombinant full-length human prolyl endopeptidase (PREP, R&D-Systems, 4308-SE); purchased R&D-Systems 4308-SE
T1 sequence (P48147 1-710): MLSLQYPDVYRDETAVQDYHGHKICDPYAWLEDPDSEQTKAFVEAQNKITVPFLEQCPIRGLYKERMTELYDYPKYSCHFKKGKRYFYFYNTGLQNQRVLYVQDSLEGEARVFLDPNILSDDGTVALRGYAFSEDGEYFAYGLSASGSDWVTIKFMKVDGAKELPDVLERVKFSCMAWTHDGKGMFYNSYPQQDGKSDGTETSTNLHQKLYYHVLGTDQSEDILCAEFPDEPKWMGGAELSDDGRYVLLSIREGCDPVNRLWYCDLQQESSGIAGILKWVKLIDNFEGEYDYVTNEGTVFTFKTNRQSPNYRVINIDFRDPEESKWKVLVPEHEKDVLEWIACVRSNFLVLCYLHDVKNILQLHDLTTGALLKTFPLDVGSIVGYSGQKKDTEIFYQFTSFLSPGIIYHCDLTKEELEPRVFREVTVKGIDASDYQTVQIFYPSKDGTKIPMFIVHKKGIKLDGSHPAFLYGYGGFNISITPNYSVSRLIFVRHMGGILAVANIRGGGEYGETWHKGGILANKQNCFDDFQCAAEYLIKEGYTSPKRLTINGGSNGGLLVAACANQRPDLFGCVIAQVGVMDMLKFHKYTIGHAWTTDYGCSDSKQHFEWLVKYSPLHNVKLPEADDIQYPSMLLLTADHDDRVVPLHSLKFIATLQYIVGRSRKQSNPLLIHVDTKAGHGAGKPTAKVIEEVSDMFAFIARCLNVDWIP
Procedure, shortened: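 0.4 nM (final, example) recombinant PREP in pH 7.5 Tris buffer with EDTA, GSH, BSA and Brij-35; compounds at 1 nM to 30 μM. Reaction started with 50 μM Z-Gly-Pro-AMC and followed by fluorescence (ex 360/em 465 nm) at 32° C for 60 min. IC50 interpolated from percent activity based on initial slopes.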

SMILES	IC50 [nM]
O=C(C1CCc2nn(Cc3ccnc(C(F)(F)F)c3F)c(=O)n21)N1CC[C@H](F)C1 (single isomer, unassigned) [Example 179]	600
O=C([C@@H]1CCc2nn(Cc3cccc(C(F)(F)F)c3)c(=O)n21)N1CCCC1 [Example 55, (5S)-5-(Pyrrolidin-1-ylcarbonyl)-2-[3-(trifluoromethyl)benzyl]-2,5,6,7-tetrahydro-3H-pyrrolo[2,1-c][1,2,4]triazol-3-one]	1.4
O=C([C@@H]1CCCc2nn(Cc3ncc(C(F)(F)F)cc3Cl)c(=O)n21)N1CC(F)C1 [Example 402, (5S)-2-{[3-Chloro-5-(trifluoromethyl)pyridin-2-yl]methyl}-5-[(3-fluoroazetidin-1-yl)carbonyl]-5,6,7,8-tetrahydro[1,2,4]triazolo[4,3-a]pyridin-3(2H)-one]	2.7
Cc1ccc(Cn2nc3n(c2=O)C(C(=O)N2CC(O)(C(F)(F)F)C2)CCC3)cc1 (racemic) [Example 131, (5RS)-{[3-Hydroxy-3-(trifluoromethyl)azetidin-1-yl]carbonyl}-2-(4-methylbenzyl)-5,6,7,8-tetrahydro[1,2,4]triazolo[4,3-a]pyridin-3(2H)-one]	107
O=C(C1C(C(F)(F)F)CCc2nn(Cc3ncc(Cl)cc3F)c(=O)n21)N1CC(F)C1 (single isomer, unassigned) [Example 309, (5RS,6RS)-2-[(5-Chloro-3-fluoropyridin-2-yl)methyl]-5-[(3-fluoroazetidin-1-yl)carbonyl]-6-(trifluoromethyl)-5,6,7,8-tetrahydro[1,2,4]triazolo[4,3-a]pyridin-3(2H)-one]	64
O=C(C1CCCc2nn(Cc3ccc(C(F)(F)F)c(F)c3)c(=O)n21)N1CCCC1 (racemic) [Example 14]	0.3
COc1ccc(CCn2nc3n(c2=O)[C@H](C(=O)N2C[C@@H](F)[C@@H](F)C2)CCC3)cc1 [Example 522, (5S)-5-{[(3R,4S)-3,4-Difluoropyrrolidin-1-yl]carbonyl}-2-[2-(4-methoxyphenyl)ethyl]-5,6,7,8-tetrahydro[1,2,4]triazolo[4,3-a]pyridin-3(2H)-one]	1.5
O=C(C1CCCc2nn(Cc3ccc(Cl)nc3)c(=O)n21)N1CCCC1 (single isomer, unassigned) [Example 32, (5RS)-2-[(6-Chloropyridin-3-yl)methyl]-5-(pyrrolidin-1-ylcarbonyl)-5,6,7,8-tetrahydro[1,2,4]triazolo[4,3-a]pyridin-3(2H)-one]	1.48
COc1ccc(Cn2nc3n(c2=O)C(C(=O)N2CCCC2)CCC3)cc1 (racemic) [Example 36, (5RS)-2-(4-Methoxybenzyl)-5-(pyrrolidin-1-ylcarbonyl)-5,6,7,8-tetrahydro[1,2,4]triazolo[4,3-a]pyridin-3(2H)-one]	3.65
O=C([C@@H]1CCCc2nn(Cc3cncc(Cl)c3)c(=O)n21)N1CC[C@H](F)C1 [Example 438, (5S)-2-[(5-Chloropyridin-3-yl)methyl]-5-{[(3S)-3-fluoropyrrolidin-1-yl]carbonyl}-5,6,7,8-tetrahydro[1,2,4]triazolo[4,3-a]pyridin-3(2H)-one]	1.68
O=C([C@@H]1CCCc2nn(Cc3ccc(F)cc3Cl)c(=O)n21)N1CCC(F)(F)C1 [Example 477, (5S)-2-(2-Chloro-4-fluorobenzyl)-5-[(3,3-difluoropyrrolidin-1-yl)carbonyl]-5,6,7,8-tetrahydro[1,2,4]triazolo[4,3-a]pyridin-3(2H)-one]	0.21
O=C([C@@H]1CCCc2nn(Cc3cncc(Cl)c3)c(=O)n21)N1CCC(F)(F)C1 [Example 435, (5S)-2-[(5-Chloropyridin-3-yl)methyl]-5-[(3,3-difluoropyrrolidin-1-yl)carbonyl]-5,6,7,8-tetrahydro[1,2,4]triazolo[4,3-a]pyridin-3(2H)-one]	2.65
O=C(C1CC(C(F)(F)F)Cc2nn(Cc3cncc(Cl)c3)c(=O)n21)N1C[C@@H](F)[C@@H](F)C1 (single isomer, unassigned) [Example 269]	4.2
O=C([C@@H]1CCCc2nn(Cc3ccc(F)c(Cl)c3)c(=O)n21)N1CCC2CC21 (single isomer, unassigned) [Example 202]	19
O=C(C1CC(C(F)(F)F)Cc2nn(Cc3ccc(Cl)nc3)c(=O)n21)N1CC[C@H](F)C1 (single isomer, unassigned) [Example 243]	0.623
O=C([C@@H]1CCCc2nn(/C=C/c3ccc(F)cc3)c(=O)n21)N1CCCC1 [Example 204, (5S)-2-[(E)-2-(4-Fluorophenyl)vinyl]-5-(pyrrolidin-1-ylcarbonyl)-5,6,7,8-tetrahydro[1,2,4]triazolo[4,3-a]pyridin-3(2H)-one]	320
COc1ccc(CCn2nc3n(c2=O)[C@H](C(=O)N2CC(F)(F)C2)CCC3)cc1 [Example 523, (5S)-5-[(3,3-Difluoroazetidin-1-yl)carbonyl]-2-[2-(4-methoxyphenyl)ethyl]-5,6,7,8-tetrahydro[1,2,4]triazolo[4,3-a]pyridin-3(2H)-one]	28.5
CC1CCC(C(=O)N2CCC(F)(F)C2)n2c1nn(Cc1ccc(F)cc1F)c2=O (racemic) [Example 327, (5RS,8RS)-2-(2,4-Difluorobenzyl)-5-[(3,3-difluoropyrrolidin-1-yl)carbonyl]-8-methyl-5,6,7,8-tetrahydro[1,2,4]triazolo[4,3-a]pyridin-3(2H)-one]	1.9
O=C(C1CCCc2nn(CC3CCC(C(F)(F)F)CC3)c(=O)n21)N1CCCC1 (racemic) [Example 40, (5RS)-5-(Pyrrolidin-1-ylcarbonyl)-2-{[4-(trifluoromethyl)cyclohexyl]methyl}-5,6,7,8-tetrahydro[1,2,4]triazolo[4,3-a]pyridin-3(2H)-one]	5.2
Cc1ccc(CCn2nc3n(c2=O)[C@H](C(=O)N2CCCC2)CCC3)cc1 [Example 521, (5S)-2-[2-(4-Methylphenyl)ethyl]-5-(pyrrolidin-1-ylcarbonyl)-5,6,7,8-tetrahydro[1,2,4]triazolo[4,3-a]pyridin-3(2H)-one]	0.44
O=C([C@@H]1CCCc2nn(CCc3ccc(F)cc3)c(=O)n21)N1CCC(F)(F)C1 [Example 519, (5S)-5-[(3,3-Difluoropyrrolidin-1-yl)carbonyl]-2-[2-(4-fluorophenyl)ethyl]-5,6,7,8-tetrahydro[1,2,4]triazolo[4,3-a]pyridin-3(2H)-one]	1.4
O=C(C1C(C(F)(F)F)CCc2nn(Cc3ccnc(C(F)(F)F)c3F)c(=O)n21)N1CC(F)C1 (racemic) [Example 302, (5RS,6RS)-5-[(3-Fluoroazetidin-1-yl)carbonyl]-2-{[3-fluoro-2-(trifluoromethyl)pyridin-4-yl]methyl}-6-(trifluoromethyl)-5,6,7,8-tetrahydro[1,2,4]triazolo[4,3-a]pyridin-3(2H)-one]	49.5
O=C([C@@H]1CCCc2nn(Cc3ncc(Cl)cc3F)c(=O)n21)N1CC(F)C(F)C1 (some centres unmarked) [Example 549]	36
O=C([C@@H]1CCCc2nn(Cc3nccc(C(F)(F)F)c3Cl)c(=O)n21)N1CC[C@H](F)C1 [Example 392, (5S)-2-{[3-Chloro-4-(trifluoromethyl)pyridin-2-yl]methyl}-5-{[(3S)-3-fluoropyrrolidin-1-yl]carbonyl}-5,6,7,8-tetrahydro[1,2,4]triazolo[4,3-a]pyridin-3(2H)-one]	0.46
O=C(C1C(C(F)(F)F)CCc2nn(Cc3ncc(Cl)cc3Cl)c(=O)n21)N1C[C@@H](F)[C@@H](F)C1 (single isomer, unassigned) [Example 288]	16
Cc1ccc(Cn2nc3n(c2=O)C(C(=O)N2CC=CCC2)CCC3)cc1 (racemic) [Example 158, (5RS)-5-(3,6-Dihydropyridin-1 (2H)-ylcarbonyl)-2-(4-methylbenzyl)-5,6,7,8-tetrahydro[1,2,4]triazolo[4,3-a]pyridin-3(2H)-one]	8.9
O=C([C@@H]1CCc2nn(Cc3ccc(F)c(Cl)c3)c(=O)n21)N1CCCC1 [Example 51, (5S)-2-(3-Chloro-4-fluorobenzyl)-5-(pyrrolidin-1-ylcarbonyl)-2,5,6,7-tetrahydro-3H-pyrrolo[2,1-c][1,2,4]triazol-3-one]	0.89
O=C(C1C(C(F)(F)F)CCc2nn(Cc3ccc(Cl)cn3)c(=O)n21)N1CC(F)C1 (racemic) [Example 310, (5RS,6RS)-2-[(5-Chloropyridin-2-yl)methyl]-5-[(3-fluoroazetidin-1-yl)carbonyl]-6-(trifluoromethyl)-5,6,7,8-tetrahydro[1,2,4]triazolo[4,3-a]pyridin-3(2H)-one]	15
Cc1ccc(Cn2nc3n(c2=O)[C@H](C(=O)N2CC[C@H](C(F)F)C2)CCC3)cc1 [Example 143, (5S)-5-{[(3S)-3-(Difluoromethyl)pyrrolidin-1-yl]carbonyl}-2-(4-methylbenzyl)-5,6,7,8-tetrahydro[1,2,4]triazolo[4,3-a]pyridin-3(2H)-one]	13.1
